In ChEMBL document CHEMBL5058541, “EUbOPEN Chemogenomics Library 2 (NanoBRET)” (2022):

How the values were obtained:
Peregrin (Homo sapiens) [1] = target: T1, Peregrin (Homo sapiens) (UniProt P55201); conditions: Compound concentration 20.0 uM, Protein concentration 2.0 uM, Result type QC Liability
T1 sequence (whole entry): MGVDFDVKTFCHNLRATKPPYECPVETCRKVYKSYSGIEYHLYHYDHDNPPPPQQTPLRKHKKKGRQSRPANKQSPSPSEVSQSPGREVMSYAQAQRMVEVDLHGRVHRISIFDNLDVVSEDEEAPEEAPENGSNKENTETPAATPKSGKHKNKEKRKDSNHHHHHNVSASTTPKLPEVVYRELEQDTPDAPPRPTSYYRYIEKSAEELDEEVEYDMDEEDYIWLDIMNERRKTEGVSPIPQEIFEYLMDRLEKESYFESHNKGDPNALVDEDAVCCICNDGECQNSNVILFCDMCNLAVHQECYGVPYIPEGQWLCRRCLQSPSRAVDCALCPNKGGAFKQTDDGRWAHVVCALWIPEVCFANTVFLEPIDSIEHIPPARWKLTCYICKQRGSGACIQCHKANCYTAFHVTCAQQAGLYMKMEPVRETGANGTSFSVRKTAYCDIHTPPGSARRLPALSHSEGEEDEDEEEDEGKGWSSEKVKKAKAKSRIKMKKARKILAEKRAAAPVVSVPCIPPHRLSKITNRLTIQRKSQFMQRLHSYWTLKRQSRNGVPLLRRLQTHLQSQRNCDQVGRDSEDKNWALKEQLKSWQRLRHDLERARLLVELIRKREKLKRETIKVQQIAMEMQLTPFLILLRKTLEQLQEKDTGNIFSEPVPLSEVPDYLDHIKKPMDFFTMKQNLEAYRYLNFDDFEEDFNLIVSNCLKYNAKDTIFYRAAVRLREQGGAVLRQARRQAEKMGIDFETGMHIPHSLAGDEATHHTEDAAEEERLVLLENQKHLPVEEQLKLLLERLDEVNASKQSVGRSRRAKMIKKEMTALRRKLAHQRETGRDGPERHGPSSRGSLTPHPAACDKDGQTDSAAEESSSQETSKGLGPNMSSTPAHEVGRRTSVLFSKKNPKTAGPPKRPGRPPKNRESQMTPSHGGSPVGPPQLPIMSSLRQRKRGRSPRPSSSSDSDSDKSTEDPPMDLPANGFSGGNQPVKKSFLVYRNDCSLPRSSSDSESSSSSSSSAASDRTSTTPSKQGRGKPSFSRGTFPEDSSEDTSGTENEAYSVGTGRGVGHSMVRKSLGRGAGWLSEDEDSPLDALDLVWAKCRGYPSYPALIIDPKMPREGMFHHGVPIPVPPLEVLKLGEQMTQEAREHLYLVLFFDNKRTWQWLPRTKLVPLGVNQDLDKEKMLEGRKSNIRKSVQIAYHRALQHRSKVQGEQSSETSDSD

[2] = target: Mitogen-activated protein kinase 11 (Homo sapiens) (UniProt Q15759); experiment: Cellular target engagement assay with: MAPK11; parameters: cell line HEK293T; conditions: HEK-293T, NanoBRET Ttracer Tracer K10
Sequence of Mitogen-activated protein kinase 11 (Homo sapiens) (Q15759 whole entry, the tested form may be a part): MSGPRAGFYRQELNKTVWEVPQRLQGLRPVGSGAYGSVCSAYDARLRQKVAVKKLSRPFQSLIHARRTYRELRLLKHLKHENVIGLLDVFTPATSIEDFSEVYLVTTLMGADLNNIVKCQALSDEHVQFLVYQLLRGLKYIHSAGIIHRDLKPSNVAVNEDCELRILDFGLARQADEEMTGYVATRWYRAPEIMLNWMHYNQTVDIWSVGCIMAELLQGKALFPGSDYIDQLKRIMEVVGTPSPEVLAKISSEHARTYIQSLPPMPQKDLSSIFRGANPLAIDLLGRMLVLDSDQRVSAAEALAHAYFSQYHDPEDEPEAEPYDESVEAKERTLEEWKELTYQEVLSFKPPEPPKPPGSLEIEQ

[3] = target: T2, Discoidin domain-containing receptor 2 (Homo sapiens) (UniProt Q16832); experiment: Cellular target engagement assay with: DDR2; parameters: cell line HEK293T; conditions: HEK-293T, NanoBRET Ttracer Tracer K4
T2 sequence (whole entry): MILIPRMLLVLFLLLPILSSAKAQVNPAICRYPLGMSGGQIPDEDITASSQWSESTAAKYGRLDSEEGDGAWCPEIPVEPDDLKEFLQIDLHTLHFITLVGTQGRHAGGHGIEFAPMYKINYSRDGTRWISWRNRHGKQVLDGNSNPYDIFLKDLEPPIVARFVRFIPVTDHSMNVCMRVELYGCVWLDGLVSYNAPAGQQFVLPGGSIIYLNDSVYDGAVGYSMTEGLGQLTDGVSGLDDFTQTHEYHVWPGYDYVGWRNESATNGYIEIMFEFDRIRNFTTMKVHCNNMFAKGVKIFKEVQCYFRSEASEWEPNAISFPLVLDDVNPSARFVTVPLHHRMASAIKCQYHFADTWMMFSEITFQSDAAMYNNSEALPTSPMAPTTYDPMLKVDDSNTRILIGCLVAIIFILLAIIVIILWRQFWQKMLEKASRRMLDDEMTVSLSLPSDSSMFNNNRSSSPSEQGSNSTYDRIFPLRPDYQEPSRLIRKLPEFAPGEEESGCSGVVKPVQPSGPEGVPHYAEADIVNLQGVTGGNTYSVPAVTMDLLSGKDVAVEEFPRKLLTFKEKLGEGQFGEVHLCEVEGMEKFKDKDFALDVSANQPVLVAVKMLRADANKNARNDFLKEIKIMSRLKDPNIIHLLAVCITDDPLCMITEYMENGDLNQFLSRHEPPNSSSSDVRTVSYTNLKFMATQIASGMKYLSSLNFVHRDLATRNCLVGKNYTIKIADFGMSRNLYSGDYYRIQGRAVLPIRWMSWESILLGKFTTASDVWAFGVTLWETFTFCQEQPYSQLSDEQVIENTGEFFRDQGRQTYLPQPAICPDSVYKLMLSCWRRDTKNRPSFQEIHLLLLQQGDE

[4] = target: Epithelial discoidin domain-containing receptor 1 (Homo sapiens) (UniProt Q08345); experiment: Cellular target engagement assay with: DDR1; parameters: cell line HEK293T; conditions: HEK-293T, NanoBRET Ttracer Tracer K4
Sequence of Epithelial discoidin domain-containing receptor 1 (Homo sapiens) (Q08345 whole entry, the tested form may be a part): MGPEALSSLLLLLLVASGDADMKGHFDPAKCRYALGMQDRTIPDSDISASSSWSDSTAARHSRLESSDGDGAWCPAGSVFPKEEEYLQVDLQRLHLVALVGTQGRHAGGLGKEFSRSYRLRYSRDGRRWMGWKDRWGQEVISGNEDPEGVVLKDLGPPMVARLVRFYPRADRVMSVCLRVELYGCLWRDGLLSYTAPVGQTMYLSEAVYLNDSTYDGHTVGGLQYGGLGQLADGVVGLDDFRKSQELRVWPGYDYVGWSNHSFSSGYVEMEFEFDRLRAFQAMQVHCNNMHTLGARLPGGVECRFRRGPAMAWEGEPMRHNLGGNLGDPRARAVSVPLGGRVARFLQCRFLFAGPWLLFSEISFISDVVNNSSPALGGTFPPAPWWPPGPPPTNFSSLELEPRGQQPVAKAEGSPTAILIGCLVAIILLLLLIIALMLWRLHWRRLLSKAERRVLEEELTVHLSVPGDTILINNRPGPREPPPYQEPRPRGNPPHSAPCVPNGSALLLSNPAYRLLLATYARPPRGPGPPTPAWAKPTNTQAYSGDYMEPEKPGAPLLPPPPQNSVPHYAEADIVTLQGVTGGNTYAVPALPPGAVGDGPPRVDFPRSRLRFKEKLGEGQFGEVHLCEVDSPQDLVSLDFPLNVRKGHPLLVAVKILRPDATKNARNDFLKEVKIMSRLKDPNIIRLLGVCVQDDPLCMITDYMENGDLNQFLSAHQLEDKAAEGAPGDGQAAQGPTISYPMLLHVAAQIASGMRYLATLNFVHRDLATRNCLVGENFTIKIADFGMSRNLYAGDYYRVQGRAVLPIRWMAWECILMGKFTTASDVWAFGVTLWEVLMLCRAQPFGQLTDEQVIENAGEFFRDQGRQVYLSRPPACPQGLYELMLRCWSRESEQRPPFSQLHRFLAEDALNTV

[5] = target: Fibroblast growth factor receptor 3 (Homo sapiens) (UniProt P22607); conditions: Compound concentration 20.0 uM, Protein concentration 2.0 uM, Result type QC Liability
Sequence of Fibroblast growth factor receptor 3 (Homo sapiens) (P22607 23-806 limits assumed): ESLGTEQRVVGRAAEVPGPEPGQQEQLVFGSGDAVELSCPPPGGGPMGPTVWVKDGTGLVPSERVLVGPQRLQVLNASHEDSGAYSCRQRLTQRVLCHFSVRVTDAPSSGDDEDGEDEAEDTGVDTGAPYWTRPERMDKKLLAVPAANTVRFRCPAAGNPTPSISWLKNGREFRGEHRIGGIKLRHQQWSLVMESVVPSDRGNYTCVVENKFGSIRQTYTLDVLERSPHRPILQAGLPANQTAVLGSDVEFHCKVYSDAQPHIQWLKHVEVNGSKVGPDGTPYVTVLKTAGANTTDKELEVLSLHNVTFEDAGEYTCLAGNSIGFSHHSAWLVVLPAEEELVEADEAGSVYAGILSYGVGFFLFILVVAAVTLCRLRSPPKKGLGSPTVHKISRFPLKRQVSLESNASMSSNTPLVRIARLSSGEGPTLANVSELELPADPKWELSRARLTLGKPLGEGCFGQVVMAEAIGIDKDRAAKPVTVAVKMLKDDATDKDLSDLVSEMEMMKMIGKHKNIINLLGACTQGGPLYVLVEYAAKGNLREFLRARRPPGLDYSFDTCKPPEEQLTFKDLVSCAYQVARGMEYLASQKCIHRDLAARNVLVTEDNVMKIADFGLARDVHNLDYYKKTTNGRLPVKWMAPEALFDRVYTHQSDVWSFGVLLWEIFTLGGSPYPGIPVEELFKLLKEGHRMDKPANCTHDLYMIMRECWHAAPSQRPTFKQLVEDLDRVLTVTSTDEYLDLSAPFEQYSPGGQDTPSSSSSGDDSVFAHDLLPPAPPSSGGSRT
Description: Thermal Shift Assay. Domain: start/stop: P449-E759

[6] = target: Mitogen-activated protein kinase 14 (Homo sapiens) (UniProt Q16539); experiment: Cellular target engagement assay with: MAPK14; parameters: cell line HEK293T; conditions: HEK-293T, NanoBRET Ttracer Tracer K10
Sequence of Mitogen-activated protein kinase 14 (Homo sapiens) (Q16539 whole entry): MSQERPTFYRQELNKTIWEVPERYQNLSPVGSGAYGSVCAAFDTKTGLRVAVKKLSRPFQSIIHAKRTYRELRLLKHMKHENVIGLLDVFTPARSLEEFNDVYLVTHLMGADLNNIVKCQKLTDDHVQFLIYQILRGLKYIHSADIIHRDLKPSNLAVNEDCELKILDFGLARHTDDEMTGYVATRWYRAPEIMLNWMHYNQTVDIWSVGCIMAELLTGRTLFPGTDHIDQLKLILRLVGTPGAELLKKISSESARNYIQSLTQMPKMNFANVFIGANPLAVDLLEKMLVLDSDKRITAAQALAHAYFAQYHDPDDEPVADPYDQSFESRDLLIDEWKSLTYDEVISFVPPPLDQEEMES

Peregrin (Homo sapiens) [7] = target: T1, Peregrin (Homo sapiens); conditions: Compound concentration 20.0 uM, Protein concentration 2.0 uM, Result type QC Liability; remark: listed apart in the source
[8] = target: SRSF protein kinase 2 (Homo sapiens) (UniProt P78362); conditions: HEK-293T, NanoBRET Ttracer MW375
Sequence of SRSF protein kinase 2 (Homo sapiens) (P78362 whole entry, looked up): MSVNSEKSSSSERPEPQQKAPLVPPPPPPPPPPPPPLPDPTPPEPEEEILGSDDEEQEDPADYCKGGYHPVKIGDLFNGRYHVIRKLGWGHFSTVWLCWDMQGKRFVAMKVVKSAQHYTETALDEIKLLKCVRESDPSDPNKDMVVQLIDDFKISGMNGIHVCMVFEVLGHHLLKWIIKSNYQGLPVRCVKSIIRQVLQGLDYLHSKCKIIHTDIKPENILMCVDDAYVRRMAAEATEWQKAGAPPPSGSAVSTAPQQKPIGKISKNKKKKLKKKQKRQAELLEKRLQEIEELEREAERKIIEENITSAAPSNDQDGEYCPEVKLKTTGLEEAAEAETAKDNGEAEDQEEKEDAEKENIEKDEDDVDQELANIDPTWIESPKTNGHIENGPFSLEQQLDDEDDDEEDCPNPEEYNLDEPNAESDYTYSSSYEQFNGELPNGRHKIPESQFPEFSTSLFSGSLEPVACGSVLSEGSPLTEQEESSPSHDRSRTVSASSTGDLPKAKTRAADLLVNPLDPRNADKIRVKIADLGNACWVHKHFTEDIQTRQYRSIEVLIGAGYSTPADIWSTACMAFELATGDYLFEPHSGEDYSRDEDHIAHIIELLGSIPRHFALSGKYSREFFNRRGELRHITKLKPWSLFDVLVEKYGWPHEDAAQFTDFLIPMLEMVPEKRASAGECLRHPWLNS
Description: Cellular target engagement assay with: SRPK2

[9] = target: SRSF protein kinase 1 (Homo sapiens) (UniProt Q96SB4); conditions: HEK-293T, NanoBRET Ttracer MW375
Sequence of SRSF protein kinase 1 (Homo sapiens) (Q96SB4 whole entry): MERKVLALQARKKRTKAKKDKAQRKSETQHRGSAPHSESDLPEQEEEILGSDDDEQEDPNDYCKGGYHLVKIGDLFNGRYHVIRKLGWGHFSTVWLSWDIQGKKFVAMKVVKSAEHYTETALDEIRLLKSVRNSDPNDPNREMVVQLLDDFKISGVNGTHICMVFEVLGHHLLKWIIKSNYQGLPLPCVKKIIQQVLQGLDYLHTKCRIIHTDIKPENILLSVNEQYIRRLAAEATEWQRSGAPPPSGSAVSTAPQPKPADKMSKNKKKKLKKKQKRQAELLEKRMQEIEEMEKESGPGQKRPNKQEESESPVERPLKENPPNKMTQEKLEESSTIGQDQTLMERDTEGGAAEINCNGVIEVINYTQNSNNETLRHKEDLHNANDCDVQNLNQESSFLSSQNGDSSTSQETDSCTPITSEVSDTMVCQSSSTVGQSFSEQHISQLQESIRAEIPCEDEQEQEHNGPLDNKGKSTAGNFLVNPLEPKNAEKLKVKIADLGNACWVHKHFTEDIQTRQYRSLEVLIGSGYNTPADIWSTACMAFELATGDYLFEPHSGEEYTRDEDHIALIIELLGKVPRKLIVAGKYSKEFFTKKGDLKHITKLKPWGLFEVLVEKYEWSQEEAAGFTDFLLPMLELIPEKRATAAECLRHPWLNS
Description: Cellular target engagement assay with: SRPK1

[10] = target: T3, Peripheral plasma membrane protein CASK (Homo sapiens) (UniProt O14936); experiment: (§1) Cellular target engagement assay with: CASK; parameters: cell line HEK293T; conditions: HEK-293T, NanoBRET Ttracer Tracer K5
T3 sequence (whole entry): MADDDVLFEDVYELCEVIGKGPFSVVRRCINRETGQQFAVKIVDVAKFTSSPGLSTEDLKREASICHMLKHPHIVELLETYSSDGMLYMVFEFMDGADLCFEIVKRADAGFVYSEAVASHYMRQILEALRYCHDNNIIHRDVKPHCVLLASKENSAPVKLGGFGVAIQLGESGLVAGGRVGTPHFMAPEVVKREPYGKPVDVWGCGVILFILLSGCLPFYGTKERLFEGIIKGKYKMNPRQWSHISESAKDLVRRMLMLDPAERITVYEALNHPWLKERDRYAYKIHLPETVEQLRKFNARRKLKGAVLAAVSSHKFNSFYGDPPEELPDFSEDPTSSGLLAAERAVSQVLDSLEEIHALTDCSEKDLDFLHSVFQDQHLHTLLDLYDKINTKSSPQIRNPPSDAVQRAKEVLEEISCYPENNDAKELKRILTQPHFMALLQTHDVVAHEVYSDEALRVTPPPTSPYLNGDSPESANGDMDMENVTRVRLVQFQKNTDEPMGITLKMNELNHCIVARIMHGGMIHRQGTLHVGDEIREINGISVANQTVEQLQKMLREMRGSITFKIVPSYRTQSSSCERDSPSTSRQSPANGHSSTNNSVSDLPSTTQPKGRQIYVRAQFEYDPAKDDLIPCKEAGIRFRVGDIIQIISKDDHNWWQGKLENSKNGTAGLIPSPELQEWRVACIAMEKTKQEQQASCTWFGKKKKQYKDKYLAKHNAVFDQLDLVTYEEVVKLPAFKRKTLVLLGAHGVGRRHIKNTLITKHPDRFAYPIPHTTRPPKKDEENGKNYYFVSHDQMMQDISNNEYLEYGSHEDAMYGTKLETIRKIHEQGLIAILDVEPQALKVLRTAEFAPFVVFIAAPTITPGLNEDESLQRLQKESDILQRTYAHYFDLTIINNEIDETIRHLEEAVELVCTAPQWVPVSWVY

[11] = target: T4, Peripheral plasma membrane protein CASK (Homo sapiens, UniProt O14936); experiment: as §1; parameters: species or system HEK-293T; cell line HEK293T
T4 sequence (O14936 whole entry): T3 sequence (whole entry)

Row | ΔTm (Peregrin (Homo sapiens) [1]) | LogIC50 [2] | LogIC50 [3] | LogIC50 [4] | ΔTm [5] | LogIC50 [6] | ΔTm (Peregrin (Homo sapiens) [7]) | LogIC50 [8] | LogIC50 [9] | LogIC50 [10] | IC50 [11] | Structure (SMILES)
1 | -0.163 c | -7 | -8 | -8 | -0.0946 c | -7 | – | – | – | – | – | CS(=O)(=O)N1CCCC(NC(=O)[C@H](CCC2CCCCC2)NC(=O)c2ccc(CNC(=O)c3cnc4ccccn34)cc2)C1 (some centres undefined)
2 | – | – | – | – | 0.31 c | – | -1.19 c | -7 | -7 | – | – | CN(c1ncccc1CNc1ccnc(-c2nc3c(F)c(Cl)ccc3[nH]2)n1)S(C)(=O)=O
3 | 0 c | – | – | – | 0 c | – | – | – | – | -7 | 80 nM | O=C(NCCCN1CCOC1=O)c1cnc(NCc2cc(Br)ccc2Br)nc1NC1CCCC1
